The source of these data is ChEMBL document CHEMBL1143488, “Bis(indole) alkaloids as sortase A inhibitors from the sponge Spongosorites sp” (Bioorg Med Chem Lett, 2005).

Structures are written as SMILES. In brackets after ≈: the same amount, converted by molar mass.

One test addresses T1, Sortase A (Staphylococcus aureus, UniProt Q9S446).
T1 sequence (Q9S446 whole entry): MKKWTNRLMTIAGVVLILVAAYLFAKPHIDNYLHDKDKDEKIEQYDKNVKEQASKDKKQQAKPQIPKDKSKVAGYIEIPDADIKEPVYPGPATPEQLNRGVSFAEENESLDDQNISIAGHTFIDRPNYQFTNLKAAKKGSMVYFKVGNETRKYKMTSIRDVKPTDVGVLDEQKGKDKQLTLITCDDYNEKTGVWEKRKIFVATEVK
The experiment in a line: Inhibitory activity against Sortase A from Staphylococcus aureus.

The subject of another test is Staphylococcus aureus. The experiment in a line: Minimum inhibitory concentration against Staphylococcus aureus Newman strain. Type of test: functional.

Broadly, the IC50 is the concentration at which inhibition is half-maximal. Lower therefore signals greater potency. For orientation: MIC means the lowest concentration that inhibits growth of the organism. Higher therefore signals weaker potency.

With `O=C(c1nc(-c2c[nH]c3ccccc23)c[nH]1)c1c[nH]c2ccccc12` [DEOXYTOPSENTIN], the IC50 at Sortase A is 48 µM.

In the test on Staphylococcus aureus, `CC[C@H](CC[C@@H](C)[C@H]1CC[C@H]2[C@@H]3CC=C4C[C@@H](O[C@@H]5O[C@H](CO)[C@@H](O)[C@H](O)[C@H]5O)CC[C@]4(C)[C@H]3CC[C@]12C)C(C)C` [SITOGLUSIDE] registered a minimal inhibitory concentration (MIC) of 200 µg/mL (≈ 347 µM). At Sortase A, this molecule gave an IC50 of 31.7 µM. The matching figures for `O=C1NC[C@@H](c2c[nH]c3cc(Br)ccc23)N=C1c1c[nH]c2ccccc12` [(R)-6'-DEBROMOHAMACANTHIN B]: 100 µg/mL (≈ 246 µM) and over 246 µM. The matching figures for `O=C1N[C@H](c2c[nH]c3cc(Br)ccc23)CN=C1c1c[nH]c2ccccc12`: 6.25 µg/mL (≈ 15.3 µM) and 83.6 µM.

The molecule `O=C(c1nc(-c2c[nH]c3cc(Br)ccc23)c[nH]1)c1c[nH]c2cc(O)ccc12` [BROMOTOPSENTIN] displayed an MIC against Staphylococcus aureus of 25 µg/mL (≈ 59.3 µM). The same molecule showed an IC50 against Sortase A of 39.6 µM. The corresponding values for `O=C1N[C@@H](c2c[nH]c3cc(Br)ccc23)CN[C@@H]1c1c[nH]c2cc(Br)ccc12` are 12.5 µg/mL (≈ 25.6 µM) and over 205 µM.

Molecule `O=C1N[C@H](c2c[nH]c3cc(Br)ccc23)CN=C1c1c[nH]c2cc(Br)ccc12` came in with an MIC in the test on Staphylococcus aureus of 3.12 µg/mL (≈ 6.42 µM). The molecule also had an IC50 against Sortase A of 178 µM.

`O=C1NC[C@@H](c2c[nH]c3cc(Br)ccc23)N=C1c1c[nH]c2cc(Br)ccc12` yielded an MIC with Staphylococcus aureus of 6.25 µg/mL (≈ 12.9 µM). Moreover, at Sortase A, the half-inhibitory concentration (IC50) is 142 µM. Turning to `O=C(c1ncc(-c2c[nH]c3cc(Br)ccc23)[nH]1)c1c[nH]c2ccccc12` [BROMODEOXYTOPSENTIN], inhibition against Sortase A was half-maximal at 48 µM (IC50).
